Experiments:
S. aureus (SA RN450) = assay: Antibacterial MIC, gram positive; type: cell-based; details: CLSI methodology, 35° C., 18-24 hours; for MIC: Staphylococcus aureus
E. coli (EC D1-209) = assay: Antibacterial MIC, gram negative; type: cell-based; details: CLSI methodology, 35° C., 18-24 hours; for MIC: Escherichia coli

SMILES | MIC Gram Positive (SA RN450) (S. aureus (SA RN450)) | MIC Gram Negative (EC D1-209) (E. coli (EC D1-209)) | MIC (S. aureus (SA RN450)) | MIC (E. coli (EC D1-209))
CN1CCN(C(=O)c2cccc(-c3ccc(O)c4c3CC3CC5C(N(C)C)C(O)=C(C(N)=O)C(=O)C5(O)C(O)=C3C4=O)c2)CC1 (stereo not drawn) [Compound C] | *** (Good antibacterial activity (e.g., less than about 4 μg/mL)) | * (weak antibacterial activity (greater than about 8 μg/mL)) | – | –
CN(C)C1C(O)=C(C(N)=O)C(=O)C2(O)C(O)=C3C(=O)c4c(O)ccc(C(=O)CNCC(C)(C)C)c4CC3CC12 (stereo not drawn) [BP] | *** (Good antibacterial activity (e.g., less than about 4 μg/mL)) | * (weak antibacterial activity (greater than about 8 μg/mL)) | – | –
CN1CCN(C(=O)c2cccc(-c3ccc(O)c4c3CC3CC5C(N(C)C)C(O)=C(C(N)=O)C(=O)C5(O)C(O)=C3C4=O)c2)CC1 (stereo not drawn) [D] | * (weak antibacterial activity (greater than about 8 μg/mL)) | * (weak antibacterial activity (greater than about 8 μg/mL)) | – | –
COc1ccc(CN(C)C)cc1-c1ccc(O)c2c1CC1CC3C(N(C)C)C(O)=C(C(N)=O)C(=O)C3(O)C(O)=C1C2=O (stereo not drawn) [AT] | *** (Good antibacterial activity (e.g., less than about 4 μg/mL)) | *** (Good antibacterial activity (e.g., less than about 4 μg/mL)) | – | –
CN(C)CCNC(=O)c1cccc(-c2ccc(O)c3c2CC2CC4C(N(C)C)C(O)=C(C(N)=O)C(=O)C4(O)C(O)=C2C3=O)c1F (stereo not drawn) [AP] | *** (Good antibacterial activity (e.g., less than about 4 μg/mL)) | * (weak antibacterial activity (greater than about 8 μg/mL)) | – | –
CN(C)CCC(=NOC(C)(C)C)c1ccc(O)c2c1CC1CC3C(N(C)C)C(O)=C(C(N)=O)C(=O)C3(O)C(O)=C1C2=O (stereo not drawn) [Compound CJ] | *** (Good antibacterial activity (e.g., less than about 4 μg/mL)) | * (weak antibacterial activity (greater than about 8 μg/mL)) | – | –
CN(C)CCNC(=O)c1cccc(-c2cc(N(C)C)c3c(c2O)C(=O)C2=C(O)[C@]4(O)C(=O)C(C(N)=O)=C(O)[C@@H](N(C)C)[C@@H]4C[C@@H]2C3)c1 [Compound V, (4S,4aS,5aR,12aS)-4,7-Bis-dimethylamino-9-[3-(2-dimethylamino-ethylcarbamoyl)-phenyl]-3,10,12,12a-tetrahydroxy-1,11-dioxo-1,4,4a,5,5a,6,11,12a-octahydro-naphthacene-2-carboxylic Acid Amide] | – | – | > 8 µg/mL | > 8 µg/mL
CN(C)CCCOc1ccc(-c2ccc(O)c3c2CC2CC4C(N(C)C)C(O)=C(C(N)=O)C(=O)C4(O)C(O)=C2C3=O)cn1 (stereo not drawn) [W] | *** (Good antibacterial activity (e.g., less than about 4 μg/mL)) | *** (Good antibacterial activity (e.g., less than about 4 μg/mL)) | – | –
CN1CCN(CC(=O)c2ccc(O)c3c2CC2CC4C(N(C)C)C(O)=C(C(N)=O)C(=O)C4(O)C(O)=C2C3=O)CC1 (stereo not drawn) [BB] | *** (Good antibacterial activity (e.g., less than about 4 μg/mL)) | * (weak antibacterial activity (greater than about 8 μg/mL)) | – | –
CN(C)C1C(O)=C(C(N)=O)C(=O)C2(O)C(O)=C3C(=O)c4c(O)ccc(C(=O)CNCc5ccccn5)c4CC3CC12 (stereo not drawn) [BY] | *** (Good antibacterial activity (e.g., less than about 4 μg/mL)) | * (weak antibacterial activity (greater than about 8 μg/mL)) | – | –
C=CCNCC(=O)c1ccc(O)c2c1CC1CC3C(N(C)C)C(O)=C(C(N)=O)C(=O)C3(O)C(O)=C1C2=O (stereo not drawn) [BV] | *** (Good antibacterial activity (e.g., less than about 4 μg/mL)) | * (weak antibacterial activity (greater than about 8 μg/mL)) | – | –
COC(=O)c1ccc(-c2ccc(O)c3c2CC2CC4C(N(C)C)C(O)=C(C(N)=O)C(=O)C4(O)C(O)=C2C3=O)cc1 (stereo not drawn) [AR] | *** (Good antibacterial activity (e.g., less than about 4 μg/mL)) | * (weak antibacterial activity (greater than about 8 μg/mL)) | – | –
CN(CCOC(C)(C)C)Cc1cccc(-c2ccc(O)c3c2CC2CC4C(N(C)C)C(O)=C(C(N)=O)C(=O)C4(O)C(O)=C2C3=O)c1 (stereo not drawn) [BM] | *** (Good antibacterial activity (e.g., less than about 4 μg/mL)) | ** (modest antibacterial activity (between about 4 and 8 μg/mL)) | – | –
CN(C)C1C(O)=C(C(N)=O)C(=O)C2(O)C(O)=C3C(=O)c4c(O)ccc(C(=O)CN5CCN(C6CCCCC6)CC5)c4CC3CC12 (stereo not drawn) [BU] | *** (Good antibacterial activity (e.g., less than about 4 μg/mL)) | *** (Good antibacterial activity (e.g., less than about 4 μg/mL)) | – | –
CC(=O)Nc1cccc(-c2ccc(O)c3c2CC2CC4C(N(C)C)C(O)=C(C(N)=O)C(=O)C4(O)C(O)=C2C3=O)c1 (stereo not drawn) [AO] | *** (Good antibacterial activity (e.g., less than about 4 μg/mL)) | * (weak antibacterial activity (greater than about 8 μg/mL)) | – | –
COC(C)CNCC(=O)c1ccc(O)c2c1CC1CC3C(N(C)C)C(O)=C(C(N)=O)C(=O)C3(O)C(O)=C1C2=O (stereo not drawn) [CA] | *** (Good antibacterial activity (e.g., less than about 4 μg/mL)) | * (weak antibacterial activity (greater than about 8 μg/mL)) | – | –
CN(C)CCNC(=O)c1cccc(-c2ccc(O)c3c2C[C@H]2C[C@H]4CC(O)=C(C(N)=O)C(=O)[C@@]4(O)C(O)=C2C3=O)c1 [Compound Z, (4aS,5aR,12aS)-7-[3-(2-Dimethylamino-ethylcarbamoyl)-phenyl]-3,10,12,12a-tetrahydroxy-1,11-dioxo-1,4,4a,5,5a,6,11,12a-octahydro-naphthacene-2-carboxylic Acid Amide] | – | – | > 8 µg/mL | > 8 µg/mL
CC(=O)c1cccc(-c2ccc(O)c3c2CC2CC4C(N(C)C)C(O)=C(C(N)=O)C(=O)C4(O)C(O)=C2C3=O)c1 (stereo not drawn) [AS] | *** (Good antibacterial activity (e.g., less than about 4 μg/mL)) | * (weak antibacterial activity (greater than about 8 μg/mL)) | – | –
CN(C)C1C(O)=C(C(N)=O)C(=O)C2(O)C(O)=C3C(=O)c4c(O)ccc(-c5cccc(C(N)=O)c5)c4CC3CC12 (stereo not drawn) [AE] | *** (Good antibacterial activity (e.g., less than about 4 μg/mL)) | * (weak antibacterial activity (greater than about 8 μg/mL)) | – | –
CN(C)CCC(=O)c1ccc(O)c2c1CC1CC3C(N(C)C)C(O)=C(C(N)=O)C(=O)C3(O)C(O)=C1C2=O (stereo not drawn) [AV] | *** (Good antibacterial activity (e.g., less than about 4 μg/mL)) | * (weak antibacterial activity (greater than about 8 μg/mL)) | – | –
COCCNCc1ccc(-c2ccc(O)c3c2CC2CC4C(N(C)C)C(O)=C(C(N)=O)C(=O)C4(O)C(O)=C2C3=O)cc1 (stereo not drawn) [BG] | *** (Good antibacterial activity (e.g., less than about 4 μg/mL)) | *** (Good antibacterial activity (e.g., less than about 4 μg/mL)) | – | –
